Reference: patent publication US20210106582A1, “COMPOUNDS AND PHARMACEUTICAL COMPOSITIONS THEREOF FOR USE IN THE TREATMENT OF FIBROTIC DISEASES” (Galapagos NV, priority 2017, published 2021)
Several values for one entry are separate records, joined by “and”; a condition that tells them apart may be missing. Equal entries are not always repeated.

Test system: male C57BL/6 mice fed a Methionine and Choline-deficient (MCD) diet
Experiment: MCD model (methionine and choline deficient diet, NASH)
Type: in vivo
Conditions: individual animals, 30 mg/kg q.d. p.o., MCD diet 8 wk
Protocol: The methionine and choline deficient (MCD) diet model is used to produce a severe phenotype of NASH in […] (Santhekadur et al., 2017), and is used to evaluate the compounds of the invention.
At induction, 8 weeks-old male C57BL/6 mice (Janvier Labs, France) maintained at 22° C.±2° C. and humidity at 55%±10%, with a 12-hrs dark/light cycle are fed a standard diet (chow (A04C-10, Safe, France) or a Methionine and Choline-deficient (MCD) diet (EFTD.90262, Ssniff, Soest, Germany) for 8 weeks. All animals have access to filtered tap drinking water.
Four weeks after the induction, the animals are either assigned to a control-group or a test-group.
Test group animals are dosed with the a test compound, i.e. Compound A (CpdA) or Compound B (CpdB), at 30 mg/kg, q.d., p.o. formulated in methylcellulose 0.5%, 1 equivalent HCl. The control groups receives a similar volume of vehicle (10 mL/kg), i.e. the standard diet for control group 1 (C1) and the MCD diet for control group 2 (C2). Mice are randomly assigned to a treatment group according to their body weight in order to ensure a homogenous reparation.
After sacrifice (week 8), the activity of the test compound on the development of NASH is assessed by plasma ALT and AST levels and in liver by histopathological examination of fibrosis and steatosis (Sirius red, Oil Red O), collagen (OH-Pro) and triglycerides content and expression of fibrotic and inflammatory genes.
In addition, the NAS score is determined to further evaluate the compounds with respect to their effect on diet induced NASH. The nonalcoholic fatty liver disease activity scoring (NAS) has been proposed and accepted as a tool to measure changes in NAFLD during therapeutic trials (Brunt et al., 2011; Kleiner et al., 2005).
The NAS score (0-8) is defined as the sum of the steatosis score (0-3), lobular inflammation score (0-3), ballooning score (0-2). A NAS score of ≥5 is indicative of a NASH diagnostic.

## O=c1nc(OC[C@@H]2COCCO2)cc2n1CCc1cc(C#CC3CC3)ccc1-2 [Compound A, 9-Cyclopropylethynyl-2-((S)-1-[1,4]dioxan-2-ylmethoxy)-6,7-dihydro-pyrimido[6,1-a]isoquinolin-4-one]
NRQ scaled versus disease, Fig 8 Panel B
  TIMP1 NRQ gene expression: 1.0 and 1.1 and 0.4 (3×) and 0.8 and 0.9 and 0.1 and 0.5 and 2.3
Dosing from week 4, Normalised Relative Quantity scaled versus disease, FIG. 8 Panel A
  Col1a NRQ gene expression: 0.3 and 0.8 (2×) and 1.0 and 0.5 and 0.1 and 0.4 and 2.1 and 0.6 and 2.4
liver, NRQ scaled versus disease, Fig 9 Panel A
  TNfα NRQ gene expression: 0.8 (3×) and 1.4 and 1.0 and 0.7 and 0.5 and 0.1 and 1.5 and 0.4
liver, NRQ scaled versus disease, Fig 9 Panel B
  CC12 NRQ gene expression: 0.5 (4×) and 1.2 and 0.6 (2×) and 0.7 and 0.2 and 1.0
Total NAS score (0-8), Fig 10
  NAS scoring data: 7.0 (4×) and 6.0 (4×) and 5.0 and 8.0
